Drawing on ChEMBL document CHEMBL1128769, “Structure-activity relationships of tricyclic quinoxalinediones as potent antagonists for the glycine binding site of the NMDA receptor 2” (Bioorg Med Chem Lett, 1995), this text covers inhibition and Ki for 19 molecules.

Assay [1] concerns the target Glutamate receptor ionotropic, NMDA 1 (Rattus norvegicus) (UniProt P35439). Kind of assay: Percent inhibition of binding affinity for the glycine binding site of the NMDA receptor using [3H]5,7- dichloro -kynurenic acid at a concentration of 10 ng/mL.
For assay [2] the target is unchanged. The assay can be described thus: Percent inhibition of [3H]- 5,7- dichloro -kynurenic acid binding to glycine binding site of NMDA receptor at 10 ng/mL.
In assay [3] the target is Glutamate receptor ionotropic, NMDA 1 (Rattus norvegicus, UniProt P35439). The assay can be described thus: Affinity for the glycine binding site of the NMDA receptor using [3H]- 5,7- dichloro -kynurenic acid as radio-ligand.

In assay [1], `O=C(CC1CCc2cccc3[nH]c(=O)c(=O)n1c23)Nc1ccccc1` (stereo not given) showed an inhibition of 52.7%.

The molecule `O=C(O)CC1CCc2cc(I)cc3[nH]c(=O)c(=O)n1c23` (stereo not given) registered an inhibition in assay [2] of 76.2%. Moreover, in assay [3], the Ki stood at 46.6 nM.

On to `CC(=O)Nc1ccc(NC(=O)CC2CCc3cc(Br)cc4[nH]c(=O)c(=O)n2c34)cc1` (stereo not given), for which the inhibition in assay [2] is 73%.

`O=C(CC1CCc2cc(Br)cc3[nH]c(=O)c(=O)n1c23)NC1CCCCC1` (stereo not given): the inhibition in assay [2] was found to be 23.8%.

As to `O=C(CC1CCc2cc(Br)cc3[nH]c(=O)c(=O)n1c23)Nc1ccccc1` (stereo not given), the inhibition in assay [2] came to 92.9%. In assay [3], the affinity, expressed as Ki, was 2.6 nM.

The molecule `Nc1ccc(NC(=O)CC2CCc3cc(Br)cc4[nH]c(=O)c(=O)n2c34)cc1` (stereo not given) had an inhibition in assay [2] of 76.4%.

`Cc1ccc(NC(=O)CC2CCc3cc(Br)cc4[nH]c(=O)c(=O)n2c34)cc1` (stereo not given): the inhibition in assay [2] was determined as 83.3%.

With `O=C(O)CC1CCc2cc(Br)cc3[nH]c(=O)c(=O)n1c23` (stereo not given), in assay [2], the inhibition worked out at 68.7%. Moreover, the Ki in assay [3] amounted to 9.9 nM.

In turn, `O=C(O)CC1CCc2cccc3[nH]c(=O)c(=O)n1c23` (stereo not given) yielded an inhibition in assay [1] of 30.3%.

Consider `C[C@H]1Cc2cc(Cl)cc3[nH]c(=O)c(=O)n(c23)C1CC(=O)O` (stereo not given in full), for which the affinity in assay [3], expressed as Ki, was 4.4 nM.

As to `O=C(CC1CCc2cc(I)cc3[nH]c(=O)c(=O)n1c23)Nc1ccccc1` (stereo not given), in assay [2], the inhibition turned out to be 46.7%. Moreover, in assay [3], the Ki came to 134 nM.

`O=C(CC1CCc2cc(Cl)cc3[nH]c(=O)c(=O)n1c23)Nc1ccccc1` (stereo not given): the inhibition in assay [2] was 79.3%. The molecule further had a Ki in assay [3] of 6.6 nM.

For `COc1ccc(NC(=O)CC2CCc3cc(Br)cc4[nH]c(=O)c(=O)n2c34)cc1` (stereo not given), the inhibition in assay [2] amounted to 67.5%.

`C[C@H]1Cc2cc(Cl)cc3[nH]c(=O)c(=O)n(c23)C1CC(=O)Nc1ccccc1` (stereo not given in full): the inhibitory constant (Ki) in assay [3] was 3.1 nM.

For the molecule `N#Cc1ccc(NC(=O)CC2CCc3cc(Br)cc4[nH]c(=O)c(=O)n2c34)cc1` (stereo not given), the inhibition in assay [1] is 3.8%.

In the case of `O=C(CC1CCc2cc(Br)cc3[nH]c(=O)c(=O)n1c23)Nc1ccc(C(F)(F)F)cc1` (stereo not given), in assay [2], the inhibition stood at 1%.

For the molecule `O=C(O)CC1CCc2cc(Cl)cc3[nH]c(=O)c(=O)n1c23` (stereo not given), the inhibition in assay [2] is 90.3%. Moreover, the Ki in assay [3] turned out to be 5.1 nM.

With `NC(=O)CC1CCc2cc(Br)cc3[nH]c(=O)c(=O)n1c23` (stereo not given), in assay [2], the inhibition worked out at 28.9%.

In turn, `O=C(CC1CCc2cc(Br)cc3[nH]c(=O)c(=O)n1c23)Nc1ccc([N+](=O)[O-])cc1` (stereo not given) showed an inhibition in assay [1] of 21.5%.
